In patent US9109041B2, “Analog compounds of analgesic peptides derived from the venom of crotalus durissus terrificus snakes, their uses, compositions, methods of preparation and purification” (priority 2004, dated 2015):

Experiments:
[1] = system: allodynia induced by constriction of the sciatic nerve; assay: allodynia induced by chronic constriction of the sciatic nerve (von Frey hairs); format: in vivo, rat; settings: for paw withdrawal threshold (allodynia), FM 24 h: day 14, 24 h after peptide; for paw withdrawal threshold (allodynia), FM 48 h: day 14, 48 h after peptide; for paw withdrawal threshold (allodynia), FM 72 h: day 14, 72 h after peptide; for paw withdrawal threshold (allodynia), FM 96 h: day 14, 96 h after peptide
Protocol: For the induction of neuropathic pain, surgery was performed in the sciatic nerve, in accordance with the method described by Bennett, G. J and Xie, Y. K. (Pain, 33:87-107, 1988). The animals were anesthetized with halothane. The sciatic nerve was exposed in the middle region of the thigh, moving away the femoral biceps muscle. Close to the trifurcation of the sciatic nerve, 7 mm of distance from the trifurcation, 4 loose ligations were performed (chromed catgut 4-0) around it, distant from each other in approximately 1 mm. The bindings were performed along the nerve, up to 4-5 mm from the initial point. The incision was sutured in layers, using silk suture thread number 4-0.
Allodynia was evaluated for quantitative testing, in response to tactile stimulus applied to the paws of the rat, according to the method described by Chaplan el al. (1994), modified. In this test, the rats were placed, individually, in plastic cages, with meshed wire at the bottom, to allow access to the paws of these animals. Briefly, a logarithmic series of 10 calibrated Semmes-Weinstein monofilaments (von Frey hairs, Aesthesiometer Semmer-Weinstein, Stoelting Co., E.U.A) was applied to the right hind paw to determine the stimulus intensity threshold stiffness required to elicit a paw withdrawal response. Log stiffness of the hairs is determined by log 10 (mg×10) having the following values (the value in grams is between parenthesis): 3.61 (0.407 g); 3.84 (0.692 g); 4.08 (1.202 g); 4.17 (1.479 g); 4.31 (2.041 g); 4.56 (3.630 g); 4.74 (5.495 g); 4.93 (8.511 g); 5.07 (11.749 g) and 5.18 (15.136 g). It is important to point out that the filaments with weight greater than 15.136 g were not employed in the studies of allodynia.
The filaments were applied, one by one, perpendicularly, under the plantar area of both hind paws and maintained for a period of 8 seconds. The filament capable of eliciting the withdrawal of the paw, two consecutive times, was considered as the force in grams necessary to elicit the response (100% of response). In the absence of a response to the greater stimulus (15.135 g), this filament was considered as cut value.
The behavioral responses were used to calculate the 50% paw withdrawal threshold (absolute threshold), by fitting a gaussian integral psychometric function, using a maximum-likelihood fitting method. This fitting method allows parametric analyses.
The period of the application of the test and the treatments were the same as those used for determination of hyperalgesia (Table 12).
The results were analyzed by comparing the means of the basal and initial measurements or, when determined, by comparing the means obtained in the different experimental groups.
For this purpose, the animals were treated with CTOP, a specific μ receptor antagonist (20 μg/paw), nor-BNI, a specific κ receptor antagonist (50 μg/paw) or with ICI 174,864, a specific δ receptor antagonist (10 μg/paw). The antagonists were injected, by intraplantar route. The peptide was administered in the dose of 5 μg/kg, orally, immediately before the injection of the opioid antagonists.
The results were analyzed comparing the mean values of the basal and initial measurements, or of the initial and final measurements or, when determined, by comparing the mean values obtained in the different experimental groups (Tables 15 and 16).

[2] = system: prostaglandin E2-induced hyperalgesia; assay: rat paw pressure test, prostaglandin E2-induced hyperalgesia; settings: for pain threshold, FM (g) ± S.E.M: 3 h after PGE2 100 ng/paw i.pl.; for pain threshold, IM (g) ± S.E.M.: before PGE2

Xaa-Phe-Ser-Pro-Glu-Asn-Cys-Gln-Gly-Glu-Ser-Gln-Pro-Cys [SEQ ID NO: 2]
paw withdrawal threshold (allodynia), IM ([1]; 0.2 μg/kg p.o., day 14 after surgery, before peptide): 4.22 ± 0.00 log 10 (mg × 10) | paw withdrawal threshold (allodynia), BM ([1]; 1 μg/kg p.o., before surgery): 5.06 ± 0.02 log 10 (mg × 10) | paw withdrawal threshold (allodynia), FM 1 h ([1]; 1 μg/kg p.o., day 14, 1 h after peptide): 4.62 ± 0.00 log 10 (mg × 10) | paw withdrawal threshold (allodynia), FM 3 h ([1]; 1 μg/kg p.o., day 14, 3 h after peptide): 4.62 ± 0.00 log 10 (mg × 10) | paw withdrawal threshold (allodynia), FM 24 h ([1]; 1 μg/kg p.o.): 4.62 ± 0.00 log 10 (mg × 10) | paw withdrawal threshold (allodynia), FM 48 h ([1]; 1 μg/kg p.o.): 4.62 ± 0.00 log 10 (mg × 10) | paw withdrawal threshold (allodynia), FM 72 h ([1]; 1 μg/kg p.o.): 4.62 ± 0.00 log 10 (mg × 10) | paw withdrawal threshold (allodynia), FM 96 h ([1]; 1 μg/kg p.o.): 4.22 ± 0.00 log 10 (mg × 10) | paw withdrawal threshold (allodynia), IM ([1]; 1 μg/kg p.o., day 14 after surgery, before peptide): 4.23 ± 0.01 log 10 (mg × 10) | paw withdrawal threshold (allodynia), FM 1 h ([1]; 5 μg/kg p.o. + CTOP 20 μg/paw i.pl., 1 h after peptide): 5.00 ± 0.05 log 10 (mg × 10) | paw withdrawal threshold (allodynia), FM 3 h ([1]; 5 μg/kg p.o. + CTOP 20 μg/paw i.pl., 3 h after peptide): 4.99 ± 0.02 log 10 (mg × 10) | paw withdrawal threshold (allodynia), BM ([1]; 5 μg/kg p.o. + CTOP 20 μg/paw i.pl., before surgery): 4.99 ± 0.02 log 10 (mg × 10) | paw withdrawal threshold (allodynia), IM ([1]; 5 μg/kg p.o. + CTOP 20 μg/paw i.pl., day 14, before peptide): 4.29 ± 0.04 log 10 (mg × 10) | paw withdrawal threshold (allodynia), FM 1 h ([1]; 5 μg/kg p.o. + ICI 174,864 10 μg/paw i.pl., 1 h after peptide): 4.22 ± 0 log 10 (mg × 10) | paw withdrawal threshold (allodynia), FM 3 h ([1]; 5 μg/kg p.o. + ICI 174,864 10 μg/paw i.pl., 3 h after peptide): 4.22 ± 0 log 10 (mg × 10) | paw withdrawal threshold (allodynia), BM ([1]; 5 μg/kg p.o. + ICI 174,864 10 μg/paw i.pl., before surgery): 4.96 ± 0.04 log 10 (mg × 10) | paw withdrawal threshold (allodynia), IM ([1]; 5 μg/kg p.o. + ICI 174,864 10 μg/paw i.pl., day 14, before peptide): 4.29 ± 0.04 log 10 (mg × 10) | paw withdrawal threshold (allodynia), FM 1 h ([1]; 5 μg/kg p.o. + nor-BNI 50 μg/paw i.pl., 1 h after peptide): 4.62 ± 0 log 10 (mg × 10) | paw withdrawal threshold (allodynia), FM 3 h ([1]; 5 μg/kg p.o. + nor-BNI 50 μg/paw i.pl., 3 h after peptide): 4.62 ± 0 log 10 (mg × 10) | paw withdrawal threshold (allodynia), BM ([1]; 5 μg/kg p.o. + nor-BNI 50 μg/paw i.pl., before surgery): 5.03 ± 0.02 log 10 (mg × 10) | paw withdrawal threshold (allodynia), IM ([1]; 5 μg/kg p.o. + nor-BNI 50 μg/paw i.pl., day 14, before peptide): 4.25 ± 0.03 log 10 (mg × 10) | paw withdrawal threshold (allodynia), FM 1 h ([1]; 5 μg/kg p.o., 1 h after peptide (Table 16)): 5.08 ± 0.01 log 10 (mg × 10) | paw withdrawal threshold (allodynia), FM 3 h ([1]; 5 μg/kg p.o., 3 h after peptide (Table 16)): 5.09 ± 0 log 10 (mg × 10) | paw withdrawal threshold (allodynia), BM ([1]; 5 μg/kg p.o., before surgery (Table 12)): 4.99 ± 0.03 log 10 (mg × 10) | paw withdrawal threshold (allodynia), BM ([1]; 5 μg/kg p.o., before surgery (Table 16)): 5.00 ± 0.03 log 10 (mg × 10) | paw withdrawal threshold (allodynia), FM 1 h ([1]; 5 μg/kg p.o., day 14, 1 h after peptide (Table 12)): 4.94 ± 0.05 log 10 (mg × 10) | paw withdrawal threshold (allodynia), FM 3 h ([1]; 5 μg/kg p.o., day 14, 3 h after peptide (Table 12)): 4.98 ± 0.04 log 10 (mg × 10) | paw withdrawal threshold (allodynia), FM 24 h ([1]; 5 μg/kg p.o.): 4.97 ± 0.03 log 10 (mg × 10) | paw withdrawal threshold (allodynia), FM 48 h ([1]; 5 μg/kg p.o.): 4.93 ± 0.04 log 10 (mg × 10) | paw withdrawal threshold (allodynia), FM 72 h ([1]; 5 μg/kg p.o.): 4.85 ± 0.02 log 10 (mg × 10) | paw withdrawal threshold (allodynia), FM 96 h ([1]; 5 μg/kg p.o.): 4.21 ± 0.01 log 10 (mg × 10) | paw withdrawal threshold (allodynia), IM ([1]; 5 μg/kg p.o., day 14, before peptide (Table 16)): 4.27 ± 0.04 log 10 (mg × 10) | paw withdrawal threshold (allodynia), IM ([1]; 5 μg/kg p.o., day 14 after surgery, before peptide (Table 12)): 4.23 ± 0.00 log 10 (mg × 10) | duration of the anti-allodynic effect ([1]; one single administration p.o.): up to 3 days | effect of the mu opioid receptor antagonist on the anti-allodynic effect of the peptide ([1]; peptide 5 μg/kg p.o., CTOP 20 μg/paw i.pl.): did not alter | effect of the delta opioid receptor antagonist on the anti-allodynic effect of the peptide ([1]; peptide 5 μg/kg p.o., ICI 174,864 10 μg/paw i.pl.): blocked | effect of the kappa opioid receptor antagonist on the anti-allodynic effect of the peptide ([1]; peptide 5 μg/kg p.o., nor-BNI 50 μg/paw i.pl.): partially inhibited | pain threshold, FM (g) ± S.E.M ([2]; 0.00000256 μg/paw i.pl.): 57 ± 5.34 g | pain threshold, IM (g) ± S.E.M. ([2]; 0.00000256 μg/paw i.pl.): 72 ± 1.12 g | pain threshold, FM (g) ± S.E.M ([2]; 0.0000128 μg/kg i.v.): 54 ± 3.04 g | pain threshold, IM (g) ± S.E.M. ([2]; 0.0000128 μg/kg i.v.): 70 ± 2.05 g | pain threshold, FM (g) ± S.E.M ([2]; 0.0000128 μg/paw i.pl.): 62 ± 3.22 g | pain threshold, IM (g) ± S.E.M. ([2]; 0.0000128 μg/paw i.pl.): 71 ± 2.39 g | pain threshold, FM (g) ± S.E.M ([2]; 0.000064 μg/kg i.v.): 54 ± 2.39 g | pain threshold, IM (g) ± S.E.M. ([2]; 0.000064 μg/kg i.v.): 68 ± 1.44 g | pain threshold, FM (g) ± S.E.M ([2]; 0.00032 μg/kg i.v.): 63 ± 5.16 g | pain threshold, IM (g) ± S.E.M. ([2]; 0.00032 μg/kg i.v.): 72 ± 1.84 g | pain threshold, FM (g) ± S.E.M ([2]; 0.00032 μg/paw i.pl.): 60 ± 3.25 g | pain threshold, IM (g) ± S.E.M. ([2]; 0.00032 μg/paw i.pl.): 67 ± 2.35 g | pain threshold, FM (g) ± S.E.M ([2]; 0.0016 μg/kg i.v.): 67 ± 2.35 g | pain threshold, IM (g) ± S.E.M. ([2]; 0.0016 μg/kg i.v.): 74 ± 0.92 g
